Reference: patent EP0111413A1, “Novel sulfone, process for its preparation, composition containing it and use thereof” (priority 1982, dated 1984)

Key:
Pseudomonas aeruginosa = test: Minimum Inhibitory Concentration test in nutrient broth (bacterial); assay type: cell-based; parameters: key: + = Growth; - = No Growth
Procedure: (§1) A Minimum Inhibitory Concentration test with bacteria and fungus was performed in nutrient broth. The test compound was added to sterile broth at 0.1% (1000PPM) and diluted sequentially with sterile broth to yield required levels. One drop of an actively-growing 24-hour culture was added to each level and incubated for a period of 24 hours at a temperature of 30°C. At the end of the time period, an aliquot from each tube was placed on nutrient agar and observed for growth.

Wild oat = test: Postemergence herbicidal test; assay type: in vivo, Avena fatua; settings: Application rate 4.0 lb/A, postemergence spray, rated visually nineteen days later
Excerpt: (§2) Aluminum planting flats measuring 15.2 x 22.9 x 8.9 cm were filled to a depth of 7.6 cm with loamy sand soil, containing 50 parts per million (ppm) each of the commercial fungicide cis-N(trichloromethyl)thio -4-cyclohexane-l,2-dicarboximide (Captan®) and 17-17-17 fertilizer (percentages of N-P2O5-K2O) on a weight basis). Several rows were impressed across the width of each flat and a variety of seeds of both grass and broadleaf weed species were planted, one species per row. The weed species used are listed below:
(§3) The broad leaf species were seeded first, and the grasses were seeded four days later. Ample seeds of each species were planted to produce 20 to 50 seedlings per row after emergence, depending on the size of each plant.
(§4) Ten days after the grasses were seeded, the emerged seedlings of all species were sprayed with aqueous solutions of the test compounds. The solutions were prepared to such dilutions that a spray rate of 80 gallons per acre (750 liters per hectare) gave from 0.5 to 4.0 pounds of test compound per acre (0.56 to 4.48 kilograms per hectare) as desired for each test. Additional flats not treated at all were used as standards for measuring the extent of weed control in the treated flats. […]

Velvetleaf = test: Postemergence herbicidal test; assay type: in vivo, Abutilon theophrasti; settings: Application rate 4.0 lb/A, postemergence spray, rated visually nineteen days later
Excerpt: as §2, §3, §4

Foxtail = test: Postemergence herbicidal test; assay type: in vivo, Setaria sp.; settings: Application rate 4.0 lb/A, postemergence spray, rated visually nineteen days later
Excerpt: as §2, §3, §4

Alternaria solani = test: Minimum Inhibitory Concentration test in nutrient broth (fungal); assay type: cell-based; parameters: key: + = Growth; - = No Growth
Procedure: as §1

Annual morning glory = test: Postemergence herbicidal test; assay type: in vivo, Ipomoea purpurea; settings: Application rate 4.0 lb/A, postemergence spray, rated visually nineteen days later
Excerpt: as §2, §3, §4

Mustard = test: Postemergence herbicidal test; assay type: in vivo, Brassica sp.; settings: Application rate 4.0 lb/A, postemergence spray, rated visually nineteen days later
Excerpt: as §2, §3, §4

Watergrass = test: Postemergence herbicidal test; assay type: in vivo, Echinochloa crusgalli; settings: Application rate 4.0 lb/A, postemergence spray, rated visually nineteen days later
Excerpt: as §2, §3, §4

[1] = 62.5 PPM, buffered to pH 6.8, 24 hours at 30°C
[2] = 62.5 PPM, pH 4, 24 hours at 30°C
[3] = 125 PPM, buffered to pH 6.8, 24 hours at 30°C
[4] = 125 PPM, pH 4, 24 hours at 30°C
[5] = 250 PPM, buffered to pH 6.8, 24 hours at 30°C
[6] = 250 PPM, pH 4, 24 hours at 30°C
[7] = 500 PPM, buffered to pH 6.8, 24 hours at 30°C
[8] = 500 PPM, pH 4, 24 hours at 30°C
[9] = 1000 PPM, buffered to pH 6.8, 24 hours at 30°C
[10] = 1000 PPM, pH 4, 24 hours at 30°C

`CS(=O)(=O)CC(Cl)C#N` (centres unmarked) [Compound 1, 3-(methylsulfonyl)-2-chloropropanenitrile] was tested, and the Growth (Pseudomonas aeruginosa; [1]) was “-”, the Growth (Pseudomonas aeruginosa; [2]) was “-” and the Growth (Pseudomonas aeruginosa; [3]) was “-”. The Growth (Pseudomonas aeruginosa; [4]) was “-”, the Growth (Pseudomonas aeruginosa; [5]) was “-” and the Growth (Pseudomonas aeruginosa; [6]) was “-”. The Growth (Pseudomonas aeruginosa; [7]) was “-”, the Growth (Pseudomonas aeruginosa; [8]) was “-” and the Growth (Pseudomonas aeruginosa; [9]) was “-”. The Growth (Pseudomonas aeruginosa; [10]) was “-”, the “Percent Control N” value (Wild oat) was 30% and the “Percent Control D” value (Velvetleaf) was 75%. The “Percent Control J” value (Foxtail) was 75%, the Growth (Alternaria solani; [1]) was “+” and the Growth (Alternaria solani; [2]) was “+”. The Growth (Alternaria solani; [3]) was “+”, the Growth (Alternaria solani; [4]) was “-” and the Growth (Alternaria solani; [5]) was “-”. For the same compound, the Growth (Alternaria solani; [6]) was “-”, the Growth (Alternaria solani; [7]) was “-” and the Growth (Alternaria solani; [8]) was “-”. The Growth (Alternaria solani; [9]) was “-”, the Growth (Alternaria solani; [10]) was “-” and the “Percent Control A” value (Annual morning glory) was 75%. The “Percent Control E” value (Mustard) was 40% and the “Percent Control L” value (Watergrass) was 65%.
